In patent US20080262019A1, “Optical Isomers of (+) and (-)-Trans-2,3,4,4A,5,9B-Hexahydro-2,8-Dimethyl-1H-Pyrido[4,3-B] Indole” (priority 2005, published 2008):
Entries after “also recorded” stand apart in the source; their conditions may differ. Marks after values point to notes of the source that are not given here.

Tested on: male C57BL/6 mice
Assay: spontaneous orientation (patroling behavior) test in the closed cross maze
Format: in vivo
Conditions: for F_PtrN, duration of the first patroling cycle (number of arm visits), M / L_TrnN, number of left turns, M / PatrlN, number of patrolling cycles, M / R_TrnN, number of right turns, M / S_PtrN, duration of the second patrolling cycle (number of arm visits), M / S_VisN, spontaneous stereotype behavior, M / rl_Ind, asymmetry index of turns, M / F_ChTm, latency of the first arm visit, M / F_GlTm, length of the first arm visit, M / T_ChTm, total time spent in the central compartment of the maze, M / T_GlTm, total time spent in the side arms of the maze, M / F_PasN, M: 1 hour after treatment; for nootropic effect (decrease in F_PtrN and S_PtrN, increase in PatrlN): single administration into stomach
Experimental: Preclinical evaluation of nootropic and sedative activity of the compounds was performed in mice using spontaneous orientation (patroling behavior) test in the cross maze, that allows simultaneous evaluation of nootropic, tranquilizing, sedative and psychostimulating effects of the compounds.
For evaluation of the exploratory behavior of the animals the closed cross maze test was used (Salimov R. M., Evaluation of the ordering of the way in the process of exploratory behavior in mice. Journal of the Higher Nervous Activity, 1988, v. 38, #3, pp. 569-571).
The mouse was placed in the central compartment of the maze and the sequence of its visits in different compartments was recorded semi-automatically.
Test was completed after 12 visits (Salimov R. M., Evaluation of the ordering of the way in the process of exploratory behavior in mice. Journal of the Higher Nervous Activity, 1988, v.38, #3, pp. 569-571; Salimov R. M., McBride W. J., Sinclair J. D., Lumeng L., Li T. -K. Performance in the cross-maze and slip funnel tests of four pairs of rat lines selectively bred for divergent alcohol drinking behavior. Addict. Biol. 1996a, 1:273-280; Salimov, R. M., McBride, W. J., McKenzie, D. L., Lumeng, L. and Li, T. -K. Ethanol consumption by adolescent alcohol-preferring P rats on subsequent behavioural performance in the cross-maze and slip funnel tests. Alcohol. 1996b, 13: c. 297-300).
Subsequent computerized analysis of the record singled out a number of behavioral characteristics. The most informative among them were:
1) The total time spent by the animal in the central compartment of the maze—T_ChTm, and the total time spent by the animal in the side arms of the maze—T_GlTm.
These variables reflect the level of the motor activity of the animal and also reflect the intensity of their exploratory drive for the new environment. […] Alcohol 20:61-68; 2000; Markina N. V., Salimov R. M., Poletaeva I. I. Exploratory behaviour of F2 crosses of mouse lines having selected for different brain weight: A multivariate analysis. Prog. Neuro-Psychopharmacol. Biol. Psychiat. 2004, 28(3):583-589).
2) The latency (variable F_ChTm) and the length of the first arm visit (F_GlTm).
These variables reflect the level of anxiety of the animal in the new environment and can be used for the evaluation of the tranquilizing (anxiolythic) effect of the drug (Salimov, R. M. Different behavioral patterns related to alcohol use in rodents: A factor analysis. Alcohol. 1999, 17:157-162).
3) The duration of the first patroling cycle—variable F_PtrN, and the duration of the second patrolling cycle—variable S_PtrN.
These variables are measured by the number of the animal's visits in the maze arms, performed by the animal for the exploration of the environment before it visits all 4 arms at least once (Salimov R. M., Evaluation of the ordering of the way in the process of exploratory behavior in mice. Journal of the Higher Nervous Activity, 1988, v.38, #3, pp. 569-571; Salimov R. M., McBride W. J., Sinclair J. D., Lumeng L., Li T. -K. Performance in the cross-maze and slip funnel tests of four pairs of rat lines selectively bred for divergent alcohol drinking behavior.
4) The number of patrolling cycles—variable PatriN, executed during the time of the experiment, as one of the characteristics of the efficiency of exploratory behavior. The more patroling cycles were accomplished, the more “systematic” and efficient was the exploration of the maze.
Variables from groups 3 and 4 can be used for the evaluation of the nootropic activity of the drugs.
5) The number of right turns—variable R_TrnN, and the number of left turns—variable L_TrN, executed by the animals moving from one arm of the maze to the other, as well as asymmetry index—variable rl_Ind—of these turns:
rl_Ind ═R_TrnN*(R_TrnN+L_TrnN)^−1
6) The spontaneous stereotype behavior—variable S_VisN, that characterizes animal's visiting two arms of the maze in turn more than two times in a row. […]

[1] = 1 mg/kg, single dose, N = 15, in s (unit assumed)
[2] = single administration 0.5 mg/kg
[3] = 100 mg/kg, single dose into stomach, N = 15
[4] = 100 mg/kg, single dose into stomach, N = 15, in s (unit assumed)
[5] = 300 mg/kg, single dose into stomach, N = 15
[6] = 300 mg/kg, single dose into stomach, N = 15, in s (unit assumed)
[7] = 2.5 mg/kg, single dose into stomach, N = 12
[8] = 2.5 mg/kg, single dose into stomach, N = 12, in s (unit assumed)
[9] = 5.0 mg/kg, single dose into stomach, N = 12
[10] = 5.0 mg/kg, single dose into stomach, N = 12, in s (unit assumed)
[11] = single administration, 2.5 and 5.0 mg/kg doses

## O=C(CCCN1CCC(O)(c2ccc(Cl)cc2)CC1)c1ccc(F)cc1 [Haloperidol, reference compound]
1 mg/kg, single dose, N = 15
  F_PtrN, duration of the first patroling cycle (number of arm visits), M: 6.09
  L_TrnN, number of left turns, M: 3.36
  PatrlN, number of patrolling cycles, M: 1.91
  R_TrnN, number of right turns, M: 3.91
  S_PtrN, duration of the second patrolling cycle (number of arm visits), M: 5.20
  S_VisN, spontaneous stereotype behavior, M: 2.35*
  rl_Ind, asymmetry index of turns, M: 0.54
[1]
  F_ChTm, latency of the first arm visit, M: 19.30*
  F_GlTm, length of the first arm visit, M: 31.85*
  T_ChTm, total time spent in the central compartment of the maze, M: 100.65*
  T_GlTm, total time spent in the side arms of the maze, M: 284.67*
[2]
  sedative effect (reduction in the speed of movement in the maze; increase in T_ChTm and T_GlTm): sedative effect
  spontaneous stereotype behavior (variable S_VisN), change: decrease

## CN(C)CCOC(=O)COc1ccc(Cl)cc1 [Meclofenaxate, reference compound]
[3]
  F_PasN, M: 3.6
  F_PtrN, duration of the first patroling cycle (number of arm visits), M: 4.8*
  L_TrnN, number of left turns, M: 4.5
  PatrlN, number of patrolling cycles, M: 2.5*
  R_TrnN, number of right turns, M: 3.8
  S_PtrN, duration of the second patrolling cycle (number of arm visits), M: 4.6*
  S_VisN, spontaneous stereotype behavior, M: 3.7
  rl_Ind, asymmetry index of turns, M: 0.4
[4]
  F_ChTm, latency of the first arm visit, M: 15.4
  F_GlTm, length of the first arm visit, M: 29.1
  T_ChTm, total time spent in the central compartment of the maze, M: 40.5
  T_GlTm, total time spent in the side arms of the maze, M: 145.4
100 mg/kg
  nootropic effect (decrease in F_PtrN and S_PtrN, increase in PatrlN): nootropic effect

## NC(=O)CN1CCCC1=O [Piracetam, reference compound]
[5]
  F_PasN, M: 4.1
  F_PtrN, duration of the first patroling cycle (number of arm visits), M: 4.5*
  L_TrnN, number of left turns, M: 4.5*
  PatrlN, number of patrolling cycles, M: 2.1
  R_TrnN, number of right turns, M: 3.4*
  S_PtrN, duration of the second patrolling cycle (number of arm visits), M: 5.4
  S_VisN, spontaneous stereotype behavior, M: 4.3*
  rl_Ind, asymmetry index of turns, M: 0.4*
[6]
  F_ChTm, latency of the first arm visit, M: 11.6
  F_GlTm, length of the first arm visit, M: 25.0
  T_ChTm, total time spent in the central compartment of the maze, M: 46.1
  T_GlTm, total time spent in the side arms of the maze, M: 135.1
300 mg/kg
  nootropic effect (decrease in F_PtrN and S_PtrN, increase in PatrlN): nootropic effect

## Cc1ccc2c(c1)[C@H]1CN(C)CC[C@@H]1N2 [Trans-(+)-isomer, (+)-trans-2,8-dimethyl-2,3,4,4a,5,9b-hexahydro-1H-pyrido[4,3-b]indole]
[7]
  F_PtrN, duration of the first patroling cycle (number of arm visits), M: 5.75
  L_TrnN, number of left turns, M: 4.17
  PatrlN, number of patrolling cycles, M: 2.00
  R_TrnN, number of right turns, M: 2.67
  S_PtrN, duration of the second patrolling cycle (number of arm visits), M: 4.55*^+
  S_VisN, spontaneous stereotype behavior, M: 5.75
  T_GlTm, total time spent in the side arms of the maze, M: 271.98*^+
  rl_Ind, asymmetry index of turns, M: 0.39
[8]
  F_ChTm, latency of the first arm visit, M: 9.18
  F_GlTm, length of the first arm visit, M: 22.91
  T_ChTm, total time spent in the central compartment of the maze, M: 53.27*
[9]
  F_PtrN, duration of the first patroling cycle (number of arm visits), M: 6.30
  L_TrnN, number of left turns, M: 4.82
  PatrlN, number of patrolling cycles, M: 1.64
  R_TrnN, number of right turns, M: 3.09
  S_PtrN, duration of the second patrolling cycle (number of arm visits), M: 5.43^+
  S_VisN, spontaneous stereotype behavior, M: 5.55
  T_GlTm, total time spent in the side arms of the maze, M: 391.25*^+
  rl_Ind, asymmetry index of turns, M: 0.38
[10]
  F_ChTm, latency of the first arm visit, M: 24.60*
  F_GlTm, length of the first arm visit, M: 43.48*
  T_ChTm, total time spent in the central compartment of the maze, M: 58.27*
(+)- versus (−)-trans isomer, 2.5 and 5.0 mg/kg
  sedative effect compared with the other optic isomer: higher sedative effect
[11]
  nootropic effect (improvement in the patrolling behavior, decrease in S_PtrN): nootropic effect
  sedative effect (reduction in the speed of movement in the maze; increase in T_ChTm and T_GlTm): sedative effect
  spontaneous stereotype behavior (variable S_VisN), change: did not demonstrate this ability

## Cc1ccc2c(c1)[C@@H]1CN(C)CC[C@H]1N2 [Trans-(−)-isomer, (−)-trans-2,3,4,4a,5,9b-hexahydro-2,8-dimethyl-1H-pyrido[4,3-b]indole]
[7]
  F_PtrN, duration of the first patroling cycle (number of arm visits), M: 6.10
  L_TrnN, number of left turns, M: 3.00
  PatrlN, number of patrolling cycles, M: 1.67
  R_TrnN, number of right turns, M: 3.08
  S_PtrN, duration of the second patrolling cycle (number of arm visits), M: 4.43*^+
  S_VisN, spontaneous stereotype behavior, M: 6.33
  T_GlTm, total time spent in the side arms of the maze, M: 166.78*^+
  rl_Ind, asymmetry index of turns, M: 0.50
[8]
  F_ChTm, latency of the first arm visit, M: 10.75
  F_GlTm, length of the first arm visit, M: 20.27
  T_ChTm, total time spent in the central compartment of the maze, M: 33.10
[9]
  F_PtrN, duration of the first patroling cycle (number of arm visits), M: 5.42
  L_TrnN, number of left turns, M: 3.83
  PatrlN, number of patrolling cycles, M: 2.08
  R_TrnN, number of right turns, M: 5.08*
  S_PtrN, duration of the second patrolling cycle (number of arm visits), M: 5.00^+
  S_VisN, spontaneous stereotype behavior, M: 4.17*
  T_GlTm, total time spent in the side arms of the maze, M: 238.16*^+
  rl_Ind, asymmetry index of turns, M: 0.58
[10]
  F_ChTm, latency of the first arm visit, M: 8.33
  F_GlTm, length of the first arm visit, M: 33.62*
  T_ChTm, total time spent in the central compartment of the maze, M: 42.23*
[11]
  nootropic effect (improvement in the patrolling behavior, decrease in S_PtrN): nootropic effect
  sedative effect (reduction in the speed of movement in the maze; increase in T_ChTm and T_GlTm): sedative effect
Single administration, 2.5 and 5.0 mg/kg doses, listed as (−)-trans-2,8-dimethyl-2,3,4,4a,5,9b-hexahydro-1H-pyrido[4,3-b]indole
  spontaneous stereotype behavior (variable S_VisN), change: significantly decreased; also recorded: decrease
